From PubChem BioAssay (NCI)
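Assay format: 96-well plates, 48-hour exposure. Abbreviation: GI50, concentration required for 50% inhibition of growth. Definition used: TGI = concentration required for complete inhibition of growth.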

How the values were obtained:
Test in all cases: NCI anticancer screen, dose series, 48 h
A549 NSCLC = tested on: A549 NSCLC
UO-31 renal = tested on: UO-31 renal
IGROV1 ovarian = tested on: IGROV1 ovarian
NCI-H522 lung = tested on: NCI-H522 lung
NCI-H226 lung = tested on: NCI-H226 lung
SK-OV-3 ovarian = tested on: SK-OV-3 ovarian
HL-60(TB) leukemia = tested on: HL-60(TB) leukemia
SF-268 CNS = tested on: SF-268 CNS
CCRF-CEM leukemia = tested on: CCRF-CEM leukemia
K-562 leukemia = tested on: K-562 leukemia
SNB-19 CNS = tested on: SNB-19 CNS
NCI-H460 lung = tested on: NCI-H460 lung
RPMI-8226 leukemia = tested on: RPMI-8226 leukemia
SK-MEL-28 melanoma = tested on: SK-MEL-28 melanoma
HCT-15 colon = tested on: HCT-15 colon
SN12C renal = tested on: SN12C renal
HCC-2998 colon = tested on: HCC-2998 colon
EKVX NSCLC = tested on: EKVX NSCLC
SK-MEL-2 melanoma = tested on: SK-MEL-2 melanoma
HT29 colon = tested on: HT29 colon
TK-10 renal = tested on: TK-10 renal
SF-539 CNS = tested on: SF-539 CNS
SW-620 colon = tested on: SW-620 colon
CAKI-1 renal = tested on: CAKI-1 renal
SF-295 CNS = tested on: SF-295 CNS
SR leukemia = tested on: SR leukemia
786-0 renal = tested on: 786-0 renal
KM12 colon = tested on: KM12 colon
ACHN renal = tested on: ACHN renal
OVCAR-3 ovarian = tested on: OVCAR-3 ovarian
SNB-75 CNS = tested on: SNB-75 CNS
MOLT-4 leukemia = tested on: MOLT-4 leukemia
OVCAR-5 ovarian = tested on: OVCAR-5 ovarian
OVCAR-4 ovarian = tested on: OVCAR-4 ovarian
A498 renal = tested on: A498 renal
U251 CNS = tested on: U251 CNS
HOP-62 NSCLC = tested on: HOP-62 NSCLC
LOX IMVI melanoma = tested on: LOX IMVI melanoma
UACC-62 melanoma = tested on: UACC-62 melanoma
OVCAR-8 ovarian = tested on: OVCAR-8 ovarian
NCI-H23 lung = tested on: NCI-H23 lung
T-47D breast = tested on: T-47D breast
MDA-MB-231 breast = tested on: MDA-MB-231 breast
UACC-257 melanoma = tested on: UACC-257 melanoma
MDA-MB-435 = tested on: MDA-MB-435
M14 melanoma = tested on: M14 melanoma
HS 578T breast = tested on: HS 578T breast
BT-549 breast = tested on: BT-549 breast
HOP-92 NSCLC = tested on: HOP-92 NSCLC
MALME-3M melanoma = tested on: MALME-3M melanoma
MCF7 breast = tested on: MCF7 breast
HCT-116 colon = tested on: HCT-116 colon
PC-3 prostate = tested on: PC-3 prostate
COLO 205 colon = tested on: COLO 205 colon
RXF 393 renal = tested on: RXF 393 renal
NCI/ADR-RES ovarian = tested on: NCI/ADR-RES ovarian
SK-MEL-5 melanoma = tested on: SK-MEL-5 melanoma

Structure (SMILES): CCN1C(=O)N(CC)C2C1NC(=S)N2/N=C/C=C/c1ccccc1OC (configuration not stated)
- GI50 (A549 NSCLC): 40.3 nM
- TGI (A549 NSCLC): > 100000 nM
- GI50 (UO-31 renal): 87.9 nM
- TGI (UO-31 renal): > 87500 nM
- GI50 (IGROV1 ovarian): 41.1 nM
- TGI (IGROV1 ovarian): > 100000 nM
- GI50 (NCI-H522 lung): 25.3 nM
- GI50 (NCI-H226 lung): 45.8 nM
- TGI (NCI-H226 lung): > 100000 nM
- GI50 (SK-OV-3 ovarian): 36.8 nM
- TGI (SK-OV-3 ovarian): > 100000 nM
- GI50 (HL-60(TB) leukemia): 26.4 nM
- TGI (HL-60(TB) leukemia): 72.2 nM
- GI50 (SF-268 CNS): 53.5 nM
- TGI (SF-268 CNS): > 100000 nM
- GI50 (CCRF-CEM leukemia): 37.3 nM
- TGI (CCRF-CEM leukemia): > 100000 nM
- GI50 (K-562 leukemia): 27.6 nM
- TGI (K-562 leukemia): > 100000 nM
- GI50 (SNB-19 CNS): 48.2 nM
- TGI (SNB-19 CNS): > 100000 nM
- GI50 (NCI-H460 lung): 37 nM
- TGI (NCI-H460 lung): > 100000 nM
- GI50 (RPMI-8226 leukemia): 43.1 nM
- TGI (RPMI-8226 leukemia): 30900 nM
- GI50 (SK-MEL-28 melanoma): 16100 nM
- TGI (SK-MEL-28 melanoma): > 100000 nM
- GI50 (HCT-15 colon): 34.1 nM
- TGI (HCT-15 colon): > 100000 nM
- GI50 (SN12C renal): 49.4 nM
- TGI (SN12C renal): > 100000 nM
- GI50 (HCC-2998 colon): 34.3 nM
- TGI (HCC-2998 colon): 16200 nM
- GI50 (EKVX NSCLC): 53.2 nM
- TGI (EKVX NSCLC): > 100000 nM
- GI50 (SK-MEL-2 melanoma): 1100 nM
- TGI (SK-MEL-2 melanoma): > 100000 nM
- GI50 (HT29 colon): 36.1 nM
- TGI (HT29 colon): > 100000 nM
- GI50 (TK-10 renal): 30900 nM
- TGI (TK-10 renal): > 100000 nM
- GI50 (SF-539 CNS): 22.8 nM
- TGI (SF-539 CNS): 77.1 nM
- GI50 (SW-620 colon): 47.5 nM
- TGI (SW-620 colon): > 100000 nM
- GI50 (CAKI-1 renal): 51.4 nM
- TGI (CAKI-1 renal): > 100000 nM
- GI50 (SF-295 CNS): 30.6 nM
- TGI (SF-295 CNS): > 100000 nM
- GI50 (SR leukemia): 38.7 nM
- TGI (SR leukemia): > 100000 nM
- GI50 (786-0 renal): < 21.2 nM
- TGI (786-0 renal): > 100000 nM
- GI50 (KM12 colon): 40.6 nM
- TGI (KM12 colon): > 100000 nM
- GI50 (ACHN renal): 40.1 nM
- TGI (ACHN renal): > 100000 nM
- GI50 (OVCAR-3 ovarian): 35.1 nM
- TGI (OVCAR-3 ovarian): 1160 nM
- GI50 (SNB-75 CNS): 38.9 nM
- TGI (SNB-75 CNS): > 100000 nM
- GI50 (MOLT-4 leukemia): 42.7 nM
- TGI (MOLT-4 leukemia): > 100000 nM
- GI50 (OVCAR-5 ovarian): 71.5 nM
- TGI (OVCAR-5 ovarian): > 100000 nM
- GI50 (OVCAR-4 ovarian): 125 nM
- TGI (OVCAR-4 ovarian): > 100000 nM
- GI50 (A498 renal): 29.5 nM
- TGI (A498 renal): 88.8 nM
- GI50 (U251 CNS): 42.7 nM
- TGI (U251 CNS): > 100000 nM
- GI50 (HOP-62 NSCLC): 46.3 nM
- TGI (HOP-62 NSCLC): > 100000 nM
- GI50 (LOX IMVI melanoma): 34.2 nM
- TGI (LOX IMVI melanoma): > 100000 nM
- GI50 (UACC-62 melanoma): 45.8 nM
- TGI (UACC-62 melanoma): > 100000 nM
- GI50 (OVCAR-8 ovarian): 37.8 nM
- TGI (OVCAR-8 ovarian): > 100000 nM
- GI50 (NCI-H23 lung): 41.2 nM
- TGI (NCI-H23 lung): > 100000 nM
- GI50 (T-47D breast): 34600 nM
- TGI (T-47D breast): > 100000 nM
- GI50 (MDA-MB-231 breast): 41.3 nM
- GI50 (UACC-257 melanoma): > 100000 nM
- TGI (UACC-257 melanoma): > 100000 nM
- GI50 (MDA-MB-435): 18.9 nM
- TGI (MDA-MB-435): 53.9 nM
- GI50 (M14 melanoma): < 18.4 nM
- TGI (M14 melanoma): > 100000 nM
- GI50 (HS 578T breast): 51.4 nM
- TGI (HS 578T breast): > 100000 nM
- GI50 (BT-549 breast): 25.8 nM
- TGI (BT-549 breast): 38200 nM
- GI50 (HOP-92 NSCLC): 26.9 nM
- TGI (HOP-92 NSCLC): 27100 nM
- GI50 (MALME-3M melanoma): 59.9 nM
- TGI (MALME-3M melanoma): > 100000 nM
- GI50 (MCF7 breast): 40.6 nM
- TGI (MCF7 breast): > 100000 nM
- GI50 (HCT-116 colon): < 18.2 nM
- TGI (HCT-116 colon): > 55900 nM
- GI50 (PC-3 prostate): 41.1 nM
- TGI (PC-3 prostate): > 100000 nM
- GI50 (COLO 205 colon): 31.5 nM
- TGI (COLO 205 colon): 700 nM
- GI50 (RXF 393 renal): 52.1 nM
- TGI (RXF 393 renal): > 100000 nM
- GI50 (NCI/ADR-RES ovarian): 31.1 nM
- TGI (NCI/ADR-RES ovarian): > 100000 nM
- GI50 (SK-MEL-5 melanoma): 30.5 nM
- TGI (SK-MEL-5 melanoma): 158 nM
